Reference: the NIST ThermoML archive (doi:10.1016/j.fluid.2015.04.019)
Numbers after ± are expanded uncertainties.

Settings: 101.33 kPa, Liquid, Vibrating tube method

SMILES	mass density (293.15 K)	mass density (313.15 K)
CCCCOCCO [2-butoxyethan-1-ol]	900.64 ± 0.15 kg/m3	883.8 ± 0.15 kg/m3
CCCCCCCC [octane]	702.64 ± 0.32 kg/m3	686.39 ± 0.32 kg/m3
